# Assay results as given in patent publication US20260085340A1, “METHOD FOR SINGLE CELL ANTIMICROBIAL SUSCEPTIBILITY TESTING IN A SUB-DOUBLING TIME” (The Penn State Research Foundation, priority 2022, published 2026).
# “Also recorded” adds a separate entry of the source. Read-outs that look alike come from different tables or passages of the source.
# How the values were obtained:
# [1] = system: clinical samples of KP (VA_1 and VA_2); assay: Experimental MIC of clinical samples of KP from patients with urinary tract infections; format: cell-based, Klebsiella pneumoniae
# Procedure: (§1) In addition to validation against unseen strains, the model was tested against imaging data from two clinical samples of KP obtained from patients visiting the VA (Palo Alto) with urinary tract infections (FIG. 9D-E). The experimental MICs for these clinical samples (VA_1 and VA_2) was 0.5 μg/mL, i.e., susceptible. […] When the incubation time was increased to 50 minutes, both strains were predicted to have a mode MIC of 1 μg/mL which accurately classifies both clinical isolates as susceptible with an MIC within one-two fold dilution from the experimental MIC resulting.
# Klebsiella pneumoniae = assay: Time-lapse single cell imaging of K. pneumoniae treated with meropenem (cell division, morphology); format: cell-based; conditions: for bulging or protrusion around the center of the cell: 5 μg/mL meropenem, early time points
# Procedure: Klebsiella pneumoniae isolates (listed in Table 1 below) from the CDC & FDA Antimicrobial Resistance (AR) bank and American Type Culture Collective (ATCC) were grown in Mueller Hinton Broth (MHB) at 37° C. overnight. The next day, cells were sub-cultured in fresh MHB media for three hours (growth phase) to a density equivalent to OD600=0.5. Bacteria cells (10 μL) were treated with 10 μL meropenem at varying final concentrations of 0, 0.05, 0.5, 5, and 50 μg/mL to ascertain the physiological responses of cells. A subset of these isolates was treated with finer range of antimicrobial concentrations (0.02, 0.04, 0.016, 0.032, 0.064, 0.125, 0.5, 1, 2 μg/mL) to train the algorithm for quantitative prediction of MIC. The MICs of the isolates were obtained from the CDC and independently confirmed using the broth microdilution method according to the CDC guideline.
# Bacteria cells and meropenem in liquid media are briefly vortexed prior to mounting on 1% (v/v) UltraPure agarose pad (10×20 mm, Invitrogen) on a microslide covered with a glass coverslip (#1.5, 22×30 mm). Bacteria imaging was performed using a Nikon Ti2-E inverted microscope equipped with a DS-Qi2 CMOS camera and an Okolab stage-top temperature control chamber (37° C., 5% CO2). Images were acquired using a Nikon CFI Plan Apochromat 1 DM 100× oil objective lens and an external Phase Contrast (Ph3) module. Each isolate was observed over a period of 75 minutes (15-90 minutes after mixing with the antimicrobial).
# Time-series images were stacked and corrected for shifts in the time series using the Template Matching and Slice Alignment ImageJ plugin. Each individual stack was then analyzed using the MicrobeJ plugin for ImageJ. The plugin, designed for the detection and analysis of bacterial cells, uses computer vision algorithms to automatically identify a cell and determine a suite of morphological features, such as its area, length, circularity, and perimeter (see Table 2 below). The tracking data were summarized as a table and exported as a comma-separated values (.csv) file for further analysis.
# (§2) We developed a non-limiting example machine learning workflow for rapid AST in a sub-doubling time of the bacteria. The MorphoAST workflow started with imaging of individual bacteria under various antimicrobial concentrations (FIG. 1A). Cells were grown to log phase and treated with varying concentrations of meropenem. Cells without any antimicrobials were imaged in the same manner as controls for the experiment. Live bacteria were mounted on an agarose pad to minimize cell movement due to cell motility and Brownian motion. Time-lapse images were taken every 5 minutes. Images were aligned to match the location of individual cells at each frame and then subject to MicrobeJ analysis for extracting morphological features. A total of 21 parameters (Table 2) describing the cellular dimension and orientation were generated. The data were analyzed either fitting with an exponential function to extract the feature changing rates (FIG. 1B) or normalized against the untreated control to extract the feature differentials (FIG. 1C). The data were applied to train and validate machine learning classifiers to predict the antimicrobial response (FIG. 1D) and regressors to predict the MIC of the bacterial strain against the antimicrobial (FIG. 1E).
# [2] = system: clinical samples of KP (VA_1 and VA_2); assay: MorphoAST MIC prediction with Random Forest regressor (concentration differential) from single cell imaging; format: cell-based, Klebsiella pneumoniae; conditions: for MIC: Klebsiella pneumoniae
# Procedure: as §2
# We further evaluated the use of the concentration differential data for MIC prediction. A Random Forest regressor was trained from a total of 39,135 cells across the concentrations. […] The Random Forest regressor predicted the MIC in the 5-fold cross-validated training dataset with an RMSE of 0.8, MAE of 0.2, and an R^2 of 0.93. The performance of the model was assessed against 5 unseen KP strains, which comprised 6,067 cells. The experimental MIC and predicted MIC of the 5 unseen strains based on the Random Forest regressor are compared in FIG. 9B. […] The predicted and experimentally reported MIC labels were also compared. Based on the predicted MIC for each strain, the model correctly predicted 100% (2/2) of the susceptible and intermediate (1/1) bacteria in as few as 30 minutes. The performance of the model increased with the antimicrobial exposure time and achieved 100% CA with 0% ME and 0% VME in 50 minutes. We then tested the model performance in predicting the MIC for individual cells within each population of the unseen strains tested (FIG. 9C). While there is heterogeneity in calls for individual cells from a single population, ˜79.9% of cells from 3/5 strains tested (KP 003, KP_139, and KP_U3) had predicted MICs within one-two fold dilution from the experimental MIC after 20 minutes of antimicrobial exposure. After 50 minutes of exposure, ˜85.1% of all cells from 5/5 tested strains had predicted MICs within one-two fold dilution from experimental MIC.
# as §1
# [3] = system: Klebsiella pneumoniae isolates; conditions: cited from earlier work
smiles,measurement,setting,value
"C[C@@H](O)[C@H]1C(=O)N2C(C(=O)O)=C(S[C@@H]3CN[C@H](C(=O)N(C)C)C3)[C@H](C)[C@H]12 [Meropenem, meropenem]",MIC,"[1]; Klebsiella pneumoniae, clinical sample VA_1",0.5 µg/mL
same,susceptibility category from experimental MIC,[1]; clinical sample VA_1,susceptible
same,experimental MIC,[1]; clinical sample VA_2,0.5 µg/mL
same,susceptibility category from experimental MIC,[1]; clinical sample VA_2,susceptible
same,Bulging of the cells,"Klebsiella pneumoniae; K. pneumoniae KP0142, 50 μg/ml meropenem versus 0 μg/ml",observed only in the meropenem case; also recorded: only observed in the meropenem case
same,cell division,"Klebsiella pneumoniae; K. pneumoniae KP0142, 50 μg/ml meropenem, time-lapse imaging",completely inhibited
same,bulging or protrusion around the center of the cell,Klebsiella pneumoniae; KP0016 (susceptible),noticeable ‘bulging’ or protrusion around the center of the cell
same,bulging or protrusion around the center of the cell,Klebsiella pneumoniae; KP0142 (intermediate),noticeable ‘bulging’ or protrusion around the center of the cell
same,bulging or protrusion around the center of the cell,Klebsiella pneumoniae; KP0143 (resistant),not observed
same,MIC,"[2]; 20 min, clinical sample VA_1, within 20 minutes of meropenem treatment, read-out: predicted MIC",8 µg/mL
same,MIC,"[2]; 20 min, clinical sample VA_2, within 20 minutes of meropenem treatment, read-out: predicted MIC",7 µg/mL
same,MIC,"[2]; 50 min, clinical sample VA_1, 50 minutes incubation, read-out: predicted mode MIC",1 µg/mL
same,MIC,"[2]; 50 min, clinical sample VA_2, 50 minutes incubation, read-out: predicted mode MIC",1 µg/mL
same,predicted susceptibility category,"[2]; clinical sample VA_1, 50 minutes incubation",susceptible
same,predicted susceptibility category,"[2]; clinical sample VA_1, within 20 minutes of meropenem treatment",resistant
same,predicted susceptibility category,"[2]; clinical sample VA_2, 50 minutes incubation",susceptible
same,predicted susceptibility category,"[2]; clinical sample VA_2, within 20 minutes of meropenem treatment",resistant
same,MIC of the strain,[3]; K. pneumoniae KP0142,2 µg/mL
same,Meropenem MIC,[3]; KP strain AR Bank# 0010,1 µg/mL
same,Meropenem MIC,[3]; KP strain AR Bank# 0016,< 0.5 µg/mL
same,Meropenem Susc.,[3]; KP strain AR Bank# 0016,Susceptible
same,Meropenem MIC,[3]; KP strain AR Bank# 0028,< 0.5 µg/mL
same,Meropenem MIC,[3]; KP strain AR Bank# 0120,> 8 µg/mL
same,Meropenem MIC,[3]; KP strain AR Bank# 0140,2 µg/mL
same,Meropenem MIC,[3]; KP strain AR Bank# 0142,2 µg/mL
same,Meropenem Susc.,[3]; KP strain AR Bank# 0142,Intermediate
same,Meropenem MIC,[3]; KP strain AR Bank# 0143,> 8 µg/mL
same,Meropenem Susc.,[3]; KP strain AR Bank# 0143,Resistant
same,Meropenem MIC,[3]; KP strain AR Bank# 0147,0.5 µg/mL
same,Meropenem MIC,[3]; KP strain AR Bank# 0153,> 8 µg/mL
same,Meropenem MIC,[3]; KP strain AR Bank# 0160,> 8 µg/mL
same,Meropenem MIC,[3]; KP strain ATCC 700603,≤ 0.25 µg/mL
same,Meropenem MIC,[3]; KP strain ATCC BAA-1705,> 8 µg/mL
